Laboratory results reported in patent US8080571B2, “Tricyclic angiotensin II agonists” (Vicore Pharma AB, priority 2005, dated 2011).

System: duodenal mucosa
Test: Test C: duodenal mucosal alkaline secretion assay
Format: in vivo, rat
Details: co-administration of the AT2 receptor antagonist with title compounds
From the text: Duodenal Mucosal Alkaline Secretion Assay
Compounds were exposed to the duodenal mucosa in barbiturate-anaesthetised rats prepared for in situ titration of duodenal mucosal alkaline secretion, according to the methodology described by Flemström et al in Am. J. Physiol. (1982) 243, G348.

SMILES: Cc1cc(Cn2cnc3c2C[C@@H](C(=O)O)N(C(=O)C(c2ccccc2)c2ccccc2)C3)ccc1N(C)C [PD123319]
- effect on the stimulation of mucosal alkalisation by the title compounds: blocked
